Experiments:
[1] = Normalized urine compliance marker (diazepam) concentration in patients, FPIA, normalized to urine SG 1.030 and 154 lbs body weight; conditions: diazepam 2 mg p.o. q12h
[2] = Renal excretion rates as a function of urine volume production rate; format: in vivo, human
Description: This constancy has now been experimentally verified by examining the renal excretion rates of methadone, benzodiazepines, other drugs and creatinine and other endogenous metabolites as a function of urine volume production rate. For example, sequential, complete and timed (1-8 hours holding periods) aliquots of urine for 12 compliant control subjects were collected over 24 to 72 hour periods. For each urine aliquot, urine volume production rate (ml/min), specific gravity and creatinine concentration (mg/dl) (as the tested substance) were determined.

SMILES | MEAN NU FOR […] ([1]; Experiment #1, patient P-1, methadone 30 mg p.o. q12h) | MEAN NU FOR […] ([1]; Experiment #1, patient P-3, methadone 30 mg p.o. q12h) | renal excretion rates during a typical day [2]
CN1C(=O)CN=C(c2ccccc2)c2cc(Cl)ccc21 [diazepam] | 500 (SD 90, CV 18%) | 499 (SD 73, CV 15%) | 
CCC(=O)C(CC(C)N(C)C)(c1ccccc1)c1ccccc1 (stereo not drawn) [methadone] |  |  | relatively constant
